Reference: patent US11167046B2, “IR dyes for fluorescence imaging” (LI-COR, INC., priority 2014, dated 2021)
Like-named read-outs stand apart in the source and are kept apart here.

Columns and labels:
[1] = Excised organs imaged at 24 hrs; format: in vivo, nude mice; conditions: for detected in the brain: excised organs at 24 hrs
Procedure: (§1) Animals injected with the probes were imaged over time using the 800 fluorescence channel of the Pearl Impulse Imaging System (LI-COR Biosciences). Clearance profiles for 800CW, the compound of Formula 1, and the compound of Formula 2 were carried out in nude mice (dose of 1 nmole for all compounds). Serial images and excised organs were evaluated over a 24 hr period. A Pearl Impulse small animal imaging system was used for all animal and organ image acquisitions.
Organs were excised at 24 hrs and imaged.

[2] = Solubility in water or aqueous media; format: physicochemical; conditions: for concentration when re-suspended in water: in some embodiments; for solubility in water: stated as 'can be'
[3] = Excitation and emission of the NIR imaging probe; format: physicochemical
Text: The NIR imaging probe used was the compound of Formula 1; excitation 773 nm and emission 790 nm or independently, Formula 2, excitation 772 nm and emission 787 nm.

[4] = mouse, in vivo
A431 cells = experiment: In vitro cell-based assay of non-specific binding, A431 cells; conditions: dyes compared to 800CW
Text: (§2) FIGS. 2A, and 2B illustrate in vitro cell-based analyses for A549 cells (A) and A431 cells (B).
(§3) In vitro cell-based assays with two carcinoma cell lines (A431 and A549) were done to assess non-specific binding of the compound of Formula 1 and the compound of Formula 2. The dyes were compared to 800CW.
(§4) The fluorescence in each well was quantified with the instrument software.

[5] = Excised organ evaluation at 24 hrs and 72 hrs; format: in vivo, mouse
Text: FIGS. 11A-11H show images of various mouse organs after administration. Fluorescence images of various mouse organs at 24 and 72 hrs post-administration for the comparative control (FIG. 11A), compound of Formula 1 (FIGS. 11C and 11E) and compound of Formula 2 (FIGS. 11B and 11D). Organs examined included: heart (Ht), lungs (Ln), kidney (Kd), liver (Lv), spleen (Spl), intestine (Int), brain (Br), and muscle (Ms). […] FIGS. 11F-11H show intraoperative fluorescence (800 nm, compound of Formula 2) (FIG. 11G), white light (FIG. 11F), and composite images of the liver, gall bladder, and bile duct for compound of Formula 2 (0.1 nmole) (FIG. 11H).
Fluorescent signal intensities of various organs were examined at 24 hrs and 72 hrs for the compound of Formula 1 and the compound of Formula 2 (FIG. 11A-11E). Organs examined included: heart (Ht), lungs (Ln), kidney (Kd), liver (Lv), spleen (Spl), intestine (Int), brain (Br), and muscle (Ms).

[6] = Elimination routes in mice: serial whole animal imaging and organ imaging; format: in vivo, nude mice; conditions: for plasma protein binding: inferred from liver retention / clearance; for excretion / elimination route: 1 nmole by tail vein injection; for signal in kidneys and liver, organ 1/10th LUT scale: organs harvested after 24 hours, 1 nmole tail vein
Procedure: This example describes an experiment to evaluate the excretion of the dyes described herein from animals injected with such. The dyes tested were stable cyanine dyes (IRdyes): 800CW, 800BK-sulfonate (compound of Formula 1; 800BK or BK) and 800BK-NOS (compound of Formula 2; 800NOS or NOS). In this study 12 nude mice (3 per treatment group) were injected with either (1) no probe (control group); (2) 800CW; (3) 800NOS; or (4) 800BK. The three probes (800CW-1166 g/mole (should have been 1091.1 g/mole), 800NOS-1011.09 g/mole, and 800BK-1113.14 g/mole) were dissolved in PBS. A spot test of the three probes was performed to detect the fluorescent signal when diluted to the injection dose of 1 nmole/100 μl (FIG. 12).
The mice received 1 nmole of dye by tail vein injection. The mice were imaged serially over 24 hours after IV injection: 5 minutes, 1 hour, 2 hours, 4 hours, 6 hours and 24 hours after injection. A representative series of images are presented in FIGS. 13A-13C of one animal per dye. All the data was normalized to the same LUT. A control mouse (no probe) was used as a reference (no signal control). Imaging was performed using the Pearl® Trilogy Imaging System (LI-COR®).
The mice were then sacrificed and their organs and tissue (i.e., liver, kidney, lungs, spleen and muscle) were harvested. The organs were imaged to detect fluorescence. When the same LUT was used for the animal and organ images, fluorescence in the organs was not detectable. As such, the low end of the animal scale was expanded such that the images of the organs could be evaluated (FIG. 14). For example, the “Organs 1/10th scale” was used for the images of FIGS. 15A-15D and the “Organs 1/100th scales was used for the images of FIGS. 16A-16D.

[7] = Clearance profiles by whole-animal fluorescence imaging (dorsal and ventral) in nude mice; format: in vivo
Procedure: as §1
Non-invasive imaging will not capture signals for the full depth of the animal but the intensity values are useful to show a relative trend.
Another way of examining fluorescence signals is by measuring the % of the compound remaining at a particular time point. The 30 min time point is the baseline to which other time points are normalized.
The percent signal remaining at each time is shown with the 30 min time point post-injection, which is used as the baseline.

A549 cells = experiment: In vitro cell-based assay of non-specific binding, A549 cells; conditions: dyes compared to 800CW
Text: as §2, §3, §4

[8] = Biliary tract imaging, comparison with ICG and dose response; format: in vivo, mouse; conditions: for time post-intravenous administration by which gall bladder is visible: continues visible at 2 hrs and 5 hrs
Procedure: A Pearl Impulse small animal imaging system was used for all animal and organ image acquisitions.
A comparison of the dose responses for the compound of Formula 2 are shown in FIG. 10B (1 nmole), FIG. 10C (0.5 nmole), and FIGS. 10D and 10E (0.1 nmole) at time periods of 1 min, 30 min, 2 hrs, 5 hrs, and 24 hrs. All images are presented using the same LUT table except FIG. 10E where the LUT for FIG. 10D has been reduced to brighten the 800 nm signal so they are visible.

[9] = Fluorescent signal analysis of mouse urine; conditions: urine extracted with acetonitrile:methanol; Odyssey CLx, 800 nm
[10] = 30 min post-injection (baseline), 1 nmole, whole body, ventral view
[11] = 120 min post-injection, normalized to 30 min, 1 nmole
[12] = 300 min post-injection, normalized to 30 min, 1 nmole
[13] = 1440 min post-injection, normalized to 30 min, 1 nmole

Structure (SMILES)	detected in the brain [1]	concentration when re-suspended in water [2]	solubility in water [2]	emission [3] [nm]	excitation [3] [nm]	non-specific binding (A431 cells)	fluorescent signal in excised organs ([5]; 24 hrs post administration)	fluorescent signal in excised organs ([5]; 72 hrs post administration)	plasma protein binding [6]	retention time in the liver ([6]; nude mice, 1 nmole IV)	excretion / elimination route ([6]; nude mice)	signal in kidneys and liver, organ 1/10th LUT scale [6]	clearance pattern (route), ventral images ([7]; 1 nmole)	percent signal remaining [7, 10] [%]	percent signal remaining [7, 11] [%]	percent signal remaining [7, 12] [%]	percent signal remaining [7, 13] [%]	non-specific binding (A549 cells)	other results
CC1(C)C(/C=C/C2=C(Oc3ccc(S(=O)(=O)O)cc3)C(=C/C=C3/N(CCCCS(=O)(=O)O)c4ccc(S(=O)(=O)[O-])cc4C3(C)C)/CCC2)=[N+](CCCCS(=O)(=O)O)c2ccc(S(=O)(=O)O)cc21 [Compound of Formula 1, 2-((E)-2-((E)-3-(2-((E)-3,3-dimethyl-5-sulfonato-1-(4-sulfonatobutyl)indolin-2-ylidene)ethylidene)-2-(4-sulfonatophenoxy)cyclohex-1-en-1-yl)vinyl)-3,3-dimethyl-1-(4-sulfonatobutyl)-3H-indol-1-ium-5-sulfonate]	None	at least 200 mg/mL	highly soluble in water	790	773	more comparable to 800CW	some signal in the liver and kidney	diminished substantially	increased (higher) plasma protein binding of 800BK than 800CW	longer retention time in the liver compared to 800CW and 800NOS	excreted renally	detectable signal	clear rapidly via the kidney	100	81	19	1.4	more comparable to 800CW	retention in liver and kidney, excised organs ([1]; 24 hrs post injection): retained at higher levels in the liver and kidney compared to the compound of Formula 2; primary elimination route [4]: renal; signal in the liver ([6]; excised organs, 24 hours): higher signal compared to 800CW; bladder signal, ventral images ([7]; 1 nmole): strongest signal; movement through tissues and retention in organs ([7]; in vivo data): moves rapidly through the tissues but is retained for an extended period in organs; clearance (whole body fluorescence) compared to compound of Formula 2 ([7]; ventral view, 1 nmole): slower clearance
CC1(C)C(/C=C/C2=C(Oc3ccccc3)C(=C/C=C3/N(CCCCS(=O)(=O)O)c4ccc(S(=O)(=O)[O-])cc4C3(C)C)/CCC2)=[N+](CCCCS(=O)(=O)O)c2ccc(S(=O)(=O)O)cc21 [Compound of Formula 2, 2-((E)-2-((E)-3-(2-((E)-3,3-dimethyl-5-sulfonato-1-(4-sulfonatobutyl)indolin-2-ylidene)ethylidene)-2-phenoxycyclohex-1-en-1-yl)vinyl)-3,3-dimethyl-1-(4-sulfonatobutyl)-3H-indol-1-ium-5-sulfonate]	None	at least 200 mg/mL	highly soluble in water	787	772	significant increase in non-specific binding compared to either the compound of Formula 1 and 800CW by two-fold	some signal in the liver and kidney	diminished substantially	low plasma protein binding activity	very short retention time in the liver	eliminated from the body via the biliary tract (liver, gall bladder and bile ducts) and intestines	detectable signal	clears through the liver	100	70	14	1.4	significant increase in non-specific binding compared to either the compound of Formula 1 and 800CW by two-fold	detection signal in images ([8]; 0.1 nmole dose, same scale as 1 nmole and 0.5 nmole series): very low detection signal; gall bladder target region visibility ([8]; 0.1 nmole dose, scale adjusted (FIG. 10E)): visible on a very low background; time post-intravenous administration by which gall bladder is visible ([8]; 0.5 nmole dose): ≤ 30 min; time post-intravenous administration by which gall bladder is visible ([8]; 1 nmole dose): ≤ 30 min; liver signals, excised organs ([1]; 24 hrs post injection): lower liver signals at 24 hrs when compared to 800CW and the compound of Formula 1; fluorescent signal in urine [4]: slight fluorescence; intestinal signal ([6]; 24 hours post injection): barely detectable; clearance from the whole body to the biliary system ([6]; nude mice, 1 nmole IV): rapid; excretion into the intestines ([6]; nude mice, 1 nmole IV): rapid excretion into the intestines; time at which the liver was visible ([6]; nude mice, 1 nmole IV): 15 min; time during which predominant signal was in the intestines ([6]; nude mice, 1 nmole IV): 2 to 6 h; percent signal remaining ([7]; 120 min post-injection, normalized to 30 min, 1 nmole, listed as compound of Formula 2): greatest reduction; fluorescence signal, dorsal view ([7]; 2 hrs post injection, 1 nmole): high signal, emanating in the liver region; whole body signal ([7]; 5 hr post injection, 1 nmole): low compared to 800CW and the compound of Formula 1; whole body fluorescence signal ([7]; ventral view, 1 nmole): lower overall than the signal for 800CW and the compound of Formula 1
CC1(C)C(/C=C/C=C/C=C/C=C2/N(CCCCS(=O)(=O)[O-])c3ccc4ccccc4c3C2(C)C)=[N+](CCCCS(=O)(=O)[O-])c2ccc3ccccc3c21.[Na+] [ICG, indocyanine green]	–	–	–	–	–	–	–	–	–	–	–	–	–	–	–	–	–	–	fluorescent signal in urine [9]: No fluorescent signal
